{"source": "patent US11702414B2", "about": "“Thiadiazole IRAK4 inhibitors” (Gilead Sciences, Inc., priority 2018, dated 2023)", "key": {"[1]": {"tested_on": "TNFα", "assay": "IRAK4 Monocyte TNFα Cell Based Assay", "parameters": "species or system human", "settings": "human monocytes, second part of Table 2 (compounds 33-343), unit inferred, read-out: EC50MONO TNF HTRF"}, "[2]": {"target": "IRAK4 enzyme (Homo sapiens (Human), UniProt Q9NWZ3)", "sequence (Q9NWZ3 whole entry)": "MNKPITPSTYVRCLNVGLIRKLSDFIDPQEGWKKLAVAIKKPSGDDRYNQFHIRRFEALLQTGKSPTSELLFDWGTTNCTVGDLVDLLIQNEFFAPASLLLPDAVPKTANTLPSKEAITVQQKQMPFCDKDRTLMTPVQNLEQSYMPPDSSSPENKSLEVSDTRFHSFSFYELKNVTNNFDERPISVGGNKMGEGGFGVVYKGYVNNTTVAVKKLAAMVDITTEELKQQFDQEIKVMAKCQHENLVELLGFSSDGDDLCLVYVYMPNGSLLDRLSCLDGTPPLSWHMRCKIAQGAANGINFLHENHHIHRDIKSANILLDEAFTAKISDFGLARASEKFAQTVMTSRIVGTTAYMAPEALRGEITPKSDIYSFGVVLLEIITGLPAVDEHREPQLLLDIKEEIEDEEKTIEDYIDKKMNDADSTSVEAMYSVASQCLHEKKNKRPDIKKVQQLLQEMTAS", "assay": "IRAK4 Biochemical Assay (TR-FRET, STK1 KinEASE)"}, "[3]": {"settings": "second part of Table 2 (compounds 33-343), unit inferred, read-out: IC50 IRAK4-HTBS"}}, "note": "Read-outs that look alike come from different tables or passages of the source.", "data": [{"compound": "CC(C)Nc1cc(-c2ccc3cc(C#N)cnn23)ncc1-c1nnc(N2CCC(O)(C(F)(F)F)CC2)s1", "note": "[Example 172, 7-(5-(5-(4-hydroxy-4-(trifluoromethyl)piperidin-1-yl)-1,3,4-thiadiazol-2-yl)-4-(isopropylamino)pyridin-2-yl)pyrrolo[1,2-b]pyridazine-3-carbonitrile]", "values": [{"measurement": "EC50", "setting": "[1]; Homo sapiens, Monocyte", "value": 34.4, "unit": "nM"}, {"measurement": "IC50", "setting": "[2]", "value": 2.99, "unit": "nM"}]}, {"compound": "C[C@H](C#N)Nc1cc(-c2ccc3cc(C#N)cnn23)ncc1-c1nnc(N2CCC(C)(O)CC2)s1", "note": "[Example 180, (R)-7-(4-((1-cyanoethyl)amino)-5-(5-(4-hydroxy-4-methylpiperidin-1-yl)-1,3,4-thiadiazol-2-yl)pyridin-2-yl)pyrrolo[1,2-b]pyridazine-3-carbonitrile]", "values": [{"measurement": "EC50", "setting": "[1]; Homo sapiens, Monocyte", "value": 6.8, "unit": "nM"}, {"measurement": "IC50", "setting": "[2]", "value": 0.4, "unit": "nM"}]}, {"compound": "CC1(O)CCN(c2nnc(-c3cnc(-c4ccc5cc(C#N)cnn45)cc3NC3(C)COC3)s2)CC1", "note": "[Example 181, 7-(5-(5-(4-hydroxy-4-methylpiperidin-1-yl)-1,3,4-thiadiazol-2-yl)-4-((3-methyloxetan-3-yl)amino)pyridin-2-yl)pyrrolo[1,2-b]pyridazine-3-carbonitrile]", "values": [{"measurement": "EC50", "setting": "[1]; Homo sapiens, Monocyte", "value": 18.4, "unit": "nM"}, {"measurement": "IC50", "setting": "[2]", "value": 0.36, "unit": "nM"}]}, {"compound": "CC(C)Nc1cc(-c2ccc3cc(C#N)cnn23)ncc1-c1nnc(N2CC[C@@](C)(O)[C@@H](F)C2)s1", "note": "[Example 186, 7-(5-(5-((3S,4R)-3-fluoro-4-hydroxy-4-methylpiperidin-1-yl)-1,3,4-thiadiazol-2-yl)-4-(isopropylamino)pyridin-2-yl)pyrrolo[1,2-b]pyridazine-3-carbonitrile]", "values": [{"measurement": "EC50", "setting": "[1]; Homo sapiens, Monocyte", "value": 8.4, "unit": "nM"}, {"measurement": "IC50", "setting": "[2]", "value": 0.95, "unit": "nM"}]}, {"compound": "CC(C)Nc1cc(-c2ccc3cc(C#N)cnn23)ncc1-c1nnc(N2CCC(O)(CF)CC2)s1", "note": "[Example 189, 7-(5-(5-(4-(fluoromethyl)-4-hydroxypiperidin-1-yl)-1,3,4-thiadiazol-2-yl)-4-(isopropylamino)pyridin-2-yl)pyrrolo[1,2-b]pyridazine-3-carbonitrile]", "values": [{"measurement": "EC50", "setting": "[1]; Homo sapiens, Monocyte", "value": 16.3, "unit": "nM"}, {"measurement": "IC50", "setting": "[2]", "value": 1.02, "unit": "nM"}]}, {"compound": "CC(C)Nc1cc(-c2ccc3cc(C#N)cnn23)ncc1-c1nnc(C(=O)N2CC[C@@H](CO)C2)s1", "note": "[Example 216, (R)-7-(5-(5-(3-(hydroxymethyl)pyrrolidine-1-carbonyl)-1,3,4-thiadiazol-2-yl)-4-(isopropylamino)pyridin-2-yl)pyrrolo[1,2-b]pyridazine-3-carbonitrile]", "values": [{"measurement": "EC50", "setting": "[1]; Homo sapiens, Monocyte", "value": 18.1, "unit": "nM"}, {"measurement": "IC50", "setting": "[2]", "value": 0.78, "unit": "nM"}]}, {"compound": "CC(=O)NC1CC2CC1CC2c1nnc(-c2cnc(-c3ccc4cc(C#N)cnn34)cc2NC(C)C)s1", "note": "(centres unmarked) [Example 285, N-(5-(5-(6-(3-cyanopyrrolo[1,2-b]pyridazin-7-yl)-4-(isopropylamino)pyridin-3-yl)-1,3,4-thiadiazol-2-yl)bicyclo[2.2.1]heptan-2-yl)acetamide]", "values": [{"measurement": "EC50", "setting": "[1]; Homo sapiens, Monocyte", "value": 68, "unit": "nM"}, {"measurement": "IC50", "setting": "[2]", "value": 0.78, "unit": "nM"}]}, {"compound": "CC(C)Nc1cc(-c2ccc3cc(C#N)cnn23)ncc1-c1nnc(N2CCC(C)(O)CC2)s1", "note": "[Example 287, 7-(5-(5-(4-hydroxy-4-methylpiperidin-1-yl)-1,3,4-thiadiazol-2-yl)-4-(isopropylamino)pyridin-2-yl)pyrrolo[1,2-b]pyridazine-3-carbonitrile]", "values": [{"measurement": "EC50", "setting": "[1]; Homo sapiens, Monocyte", "value": 9.8, "unit": "nM"}, {"measurement": "IC50", "setting": "[2]", "value": 0.86, "unit": "nM"}]}, {"compound": "CC(=O)N1C[C@@H]2C[C@H]1CN2c1nnc(-c2cnc(-c3ccc4cc(C#N)cnn34)cc2NC(C)C)s1", "note": "[Example 302, 7-(5-(5-((1S,4S)-5-acetyl-2,5-diazabicyclo[2.2.1]heptan-2-yl)-1,3,4-thiadiazol-2-yl)-4-(isopropylamino)pyridin-2-yl)pyrrolo[1,2-b]pyridazine-3-carbonitrile]", "values": [{"measurement": "EC50", "setting": "[1]; Homo sapiens, Monocyte", "value": 5.3, "unit": "nM"}, {"measurement": "IC50", "setting": "[2]", "value": 0.59, "unit": "nM"}]}, {"compound": "CC(C)Nc1cc(-c2ccc3cc(C#N)cnn23)ncc1-c1nnc(N2CCN(C3COC3)CC2)s1", "note": "[Example 304, 7-(4-(isopropylamino)-5-(5-(4-(oxetan-3-yl)piperazin-1-yl)-1,3,4-thiadiazol-2-yl)pyridin-2-yl)pyrrolo[1,2-b]pyridazine-3-carbonitrile]", "values": [{"measurement": "EC50", "setting": "[1]; Homo sapiens, Monocyte", "value": 9.8, "unit": "nM"}, {"measurement": "IC50", "setting": "[2]", "value": 0.54, "unit": "nM"}]}, {"compound": "(S)-1-(5-(6-(3-cyanopyrrolo[1,2-b]pyridazin-7-yl)-4-(oxetan-3-ylamino)pyridin-3-yl)-1,3,4-thiadiazol-2-yl)-N-methylpyrrolidine-2-carboxamide [Compound 332]", "values": [{"measurement": "EC50", "setting": "[1]", "value": 435, "unit": "nM"}, {"measurement": "IC50", "setting": "[2]; [3]", "value": 1.61, "unit": "nM"}]}, {"compound": "N1-((1R,5S,8s)-3-(5-(6-(3-cyanopyrrolo[1,2-b]pyridazin-7-yl)-4-(isopropylamino)pyridin-3-yl)-1,3,4-thiadiazol-2-yl)-3-azabicyclo[3.2.1]octan-8-yl)-N2-(dimethyl(oxo)-16-sulfanylidene)oxalamide [Example 103]", "values": [{"measurement": "EC50", "setting": "[1]", "value": 1.4, "unit": "nM"}, {"measurement": "IC50", "setting": "[2]; [3]", "value": 0.51, "unit": "nM"}]}, {"compound": "N-((1R,5S,8s)-3-(5-(6-(3-cyanopyrrolo[1,2-b]pyridazin-7-yl)-4-(isopropylamino)pyridin-3-yl)-1,3,4-thiadiazol-2-yl)-3-azabicyclo[3.2.1]octan-8-yl)-2-((dimethyl(oxo)-16-sulfanylidene)amino)acetamide [Example 98]", "values": [{"measurement": "EC50", "setting": "[1]", "value": 3.2, "unit": "nM"}, {"measurement": "IC50", "setting": "[2]; [3]", "value": 1.13, "unit": "nM"}]}]}
